{"source": "paper PMC3908613", "about": "(Bioscience Reports, 2014)", "key": {"[1]": {"target": "T1, rSlk (Homo sapiens, UniProt Q9H2G2)", "T1 construct": "purchased Millipore", "T1 sequence (Q9H2G2 whole entry)": "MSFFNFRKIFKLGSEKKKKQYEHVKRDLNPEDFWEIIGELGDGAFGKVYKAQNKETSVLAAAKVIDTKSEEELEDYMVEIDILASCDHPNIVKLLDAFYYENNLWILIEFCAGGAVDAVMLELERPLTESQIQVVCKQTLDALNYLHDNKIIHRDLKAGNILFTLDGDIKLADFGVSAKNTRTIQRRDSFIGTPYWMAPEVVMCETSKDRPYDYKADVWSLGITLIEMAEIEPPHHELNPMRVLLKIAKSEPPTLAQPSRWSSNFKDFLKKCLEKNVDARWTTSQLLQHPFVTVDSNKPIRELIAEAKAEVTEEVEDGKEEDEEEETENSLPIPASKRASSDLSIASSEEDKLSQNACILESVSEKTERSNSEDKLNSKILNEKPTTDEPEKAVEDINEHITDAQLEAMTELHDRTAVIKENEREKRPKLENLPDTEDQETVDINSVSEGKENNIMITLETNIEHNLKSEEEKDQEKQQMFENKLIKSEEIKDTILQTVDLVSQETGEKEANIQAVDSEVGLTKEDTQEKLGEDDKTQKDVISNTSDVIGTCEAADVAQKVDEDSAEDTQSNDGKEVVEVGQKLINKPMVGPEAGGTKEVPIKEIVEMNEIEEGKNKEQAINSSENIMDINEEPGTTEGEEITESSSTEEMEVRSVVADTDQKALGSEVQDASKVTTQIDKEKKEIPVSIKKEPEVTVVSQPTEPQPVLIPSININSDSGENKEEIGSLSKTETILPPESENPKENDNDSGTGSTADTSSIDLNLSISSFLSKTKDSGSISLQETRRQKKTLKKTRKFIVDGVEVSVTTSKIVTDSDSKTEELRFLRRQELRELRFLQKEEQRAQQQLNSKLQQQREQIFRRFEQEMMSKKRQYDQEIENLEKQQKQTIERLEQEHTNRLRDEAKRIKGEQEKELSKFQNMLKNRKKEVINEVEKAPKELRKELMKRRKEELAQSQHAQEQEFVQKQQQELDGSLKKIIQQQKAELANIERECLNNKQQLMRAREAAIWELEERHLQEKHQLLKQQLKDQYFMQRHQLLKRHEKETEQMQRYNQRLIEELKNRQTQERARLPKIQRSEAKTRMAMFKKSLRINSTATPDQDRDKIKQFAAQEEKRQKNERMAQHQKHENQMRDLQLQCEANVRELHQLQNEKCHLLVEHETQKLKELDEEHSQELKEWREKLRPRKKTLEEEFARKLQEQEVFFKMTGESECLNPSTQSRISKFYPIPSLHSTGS", "test": "Kinase assay for recombinant Slk", "assay_type": "biochemical", "conditions": "25 μM ATP, bovine histone H1 substrate", "method": "The kinase reaction for Lok and Slk was supplemented with 12.5 mM sodium glycerophosphate and 0.25 mM sodium orthovanadate. The reactions were incubated for 15–20 min at 30°C then terminated and analysed as described previously [14]."}, "[2]": {"test_system": "NIH3T3 cells", "test": "Immunoblot of PKB phosphorylation in EGF-stimulated NIH3T3 cells", "assay_type": "cell-based", "conditions": "EGF 100 ng/ml, 4 μM D1870", "procedure": "BMDC (1.5×10^6 cells) were incubated in 6-well plates in RPMI supplemented with 0.3% FCS for 5 h at 37°C. […] NIH3T3 cells (2×10^4) were plated in 6-well plates for 48 h at 37°C. The cells were deprived of serum for 8 h in DMEM supplemented with 2 mg/ml BSA (Sigma) and then stimulated with 100 ng/ml EGF (epidermal growth factor; Peprotech) for 5 min at 37°C.\nCells were washed in cold PBS, lysed on ice for 10 min in lysis buffer (1% Triton X-100 containing 50 mM Tris–HCl (pH 7.5), 150 mM NaCl, 1 mM EGTA, 1 mM EDTA, 10 mM NaF, 1 mM sodium orthovanadate and 5 mM sodium pyrophosphate and protease inhibitors (Roche)) and centrifuged for 10 min at 20000 g at 4°C."}, "[3]": {"target": "T2, PLK1 (Mus musculus, UniProt Q07832)", "T2 construct": "endogenous in cells; host or cells: mouse spleen-derived dendritic cells (SDC), lysate", "T2 sequence (Q07832 whole entry)": "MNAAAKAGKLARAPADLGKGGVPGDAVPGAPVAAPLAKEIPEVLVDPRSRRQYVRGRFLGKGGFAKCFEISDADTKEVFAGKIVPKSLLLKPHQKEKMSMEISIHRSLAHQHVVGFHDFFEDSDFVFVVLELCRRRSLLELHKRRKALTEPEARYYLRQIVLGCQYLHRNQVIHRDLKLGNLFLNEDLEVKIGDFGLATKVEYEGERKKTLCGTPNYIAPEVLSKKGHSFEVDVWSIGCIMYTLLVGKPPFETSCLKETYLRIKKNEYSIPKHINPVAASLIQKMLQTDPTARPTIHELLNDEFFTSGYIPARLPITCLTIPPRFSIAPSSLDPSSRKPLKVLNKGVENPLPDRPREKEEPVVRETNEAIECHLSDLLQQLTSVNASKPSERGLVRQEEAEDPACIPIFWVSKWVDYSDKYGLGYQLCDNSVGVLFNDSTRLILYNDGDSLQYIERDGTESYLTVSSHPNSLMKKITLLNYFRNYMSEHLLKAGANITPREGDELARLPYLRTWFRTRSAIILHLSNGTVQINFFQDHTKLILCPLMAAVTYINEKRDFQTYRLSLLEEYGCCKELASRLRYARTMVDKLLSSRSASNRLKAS", "test": "Desthiobiotin-ATP probe capture on streptavidin beads, Western blot", "assay_type": "binding, C57BL/6 mice", "conditions": "10 μM inhibitor, DC lysate", "procedure": "SDC were cultured for at least 14 days in RPMI (without arginine and lysine, custom-made by Biosera) containing 10% dialysed FCS (Hyclone) supplemented with 84 mg/l of L-arginine (Sigma) and 40 mg/l L-lysine (Sigma) for the ‘light’ medium or 84 mg/l of L-arginine ^13C6 or ^13C10 and 40 mg/l L-lysine ^13C6 (Cambridge Isotope Laboratory) for the ‘heavy’ medium. Equal numbers (2×10^7) of ‘light’ or ‘heavy’ labelled SDCs were incubated in RPMI containing 0.5% FCS for 3 h in 15 cm dishes. The cells were lysed in the lysis buffer provided in the kit (Pierce). […] Labelling with the desthiobiotin ATP probe, and precipitation with streptavidin beads were performed according to the manufacturer's instructions (Pierce kinase enrichment kit or ActivX™). Equal amount of streptavidin precipitates were separated by electrophoresis as described above and probed with antibodies against Rsk2, Lok (Bethyl), Slk (Bethyl), PLK1 (Calbiochem), p38, Erk2 and Mst1 (from Cell Signaling)."}, "[4]": {"target": "T3, Mst1 (Mus musculus, UniProt Q9JI11)", "T3 construct": "Mst1, Lok and Slk were immunoprecipated from 150 μg, 850 μg and 1 mg of cell lysates respectively; endogenous in cells; host or cells: mouse bone-marrow-derived dendritic cells (BMDC), immunoprecipitate", "T3 sequence (Q9JI11 1-487)": "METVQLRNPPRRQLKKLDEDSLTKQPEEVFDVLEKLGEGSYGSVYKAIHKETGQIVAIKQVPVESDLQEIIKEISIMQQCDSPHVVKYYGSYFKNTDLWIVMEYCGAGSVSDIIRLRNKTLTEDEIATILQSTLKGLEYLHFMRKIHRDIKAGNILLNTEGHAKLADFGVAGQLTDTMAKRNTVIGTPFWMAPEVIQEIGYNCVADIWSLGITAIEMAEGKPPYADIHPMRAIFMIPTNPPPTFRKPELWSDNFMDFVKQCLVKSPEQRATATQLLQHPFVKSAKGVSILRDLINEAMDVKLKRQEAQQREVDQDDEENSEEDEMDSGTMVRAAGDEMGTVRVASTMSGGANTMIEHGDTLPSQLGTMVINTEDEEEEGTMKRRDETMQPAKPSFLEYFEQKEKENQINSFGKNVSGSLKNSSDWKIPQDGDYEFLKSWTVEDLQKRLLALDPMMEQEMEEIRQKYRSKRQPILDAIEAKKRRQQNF", "test": "Activity of Mst1 immunoprecipitated from BMDC", "assay_type": "biochemical, C57BL/6 mice", "conditions": "immunoprecipitates treated with 1 μM D1870; resting and LPS-stimulated DC", "procedure": "Equal numbers of BMDC (1×10^7/dish) were incubated in 15 cm dishes in RPMI supplemented with 0.3% FCS for 3 h at 37°C then incubated for 30 min with or without 50 ng/ml LPS. The cells were washed once in cold PBS and lysed in the lysis buffer described above. Mst1, Lok and Slk were immunoprecipated from 150 μg, 850 μg and 1 mg of cell lysates respectively with 2 μg of anti-MST1 (Cell Signalling), anti-Slk (Bethyl) or anti-Lok (Bethyl) or control IgG (Santa Cruz Biotech) coupled to G-protein Sepharose (Amersham) for 1 h at 4°C. […] Kinase assays were performed as described above.\nA combination of SILAC and nucleotide acyl\nAlexander J. EDGAR*, Matthias TROST†, Colin WATTS*1 and Rossana ZARU*1\n*Division of Cell Signalling and Immunolog y, University of Dundee, Dow Street, Dundee DD1 5EH, U.K., and †MRC Protein Phosphor ylation and Ubiquitylation Unit, College of Life Sciences, University of Dundee, Dow Street, Dundee DD1 5EH, U.K.\nSupplementary Table S1 is available at http://www.bioscirep.\nMst1, Lok and Slk activities in DC either unstimulated or stimulated with LPS (50 ng/ml) for 30 min at 37 ◦ C. Immuno- […]\nof triplicate stimulations. *P < 0.05, **P < 0.01, ***P < 0.001, ns not signiﬁcant.\n1 Correspondence may be addressed to either of these authors (email c.watts@dundee.ac.uk or r.zaru@dundee.ac.uk). […]"}, "[5]": {"test_system": "DC", "test": "Actin cytoskeleton organisation in DC (confocal microscopy)", "assay_type": "cell-based, C57BL/6 mice", "conditions": "4 μM D1870 or 2 μM BIX, 1h30 at 37°C", "procedure": "2 μMBIXfor1h30at37◦ C. Cells were ﬁxed in 4 % (v/v) paraformalde-hyde for 15 min, permeabilized with 0.1 % Triton for 5 min and stained with phalloidin-Alexa 555 (Invitrogen) and anti-vinculin antibody (Sigma) followed by goat anti-mouse Alexa 488 antibody (invitrogen). Cells were analysed on a Zeiss700 confocal microscope. V inculin (green) and phal-loidin (red). Error bar 10 μm. Images are representative of three inde- […]\n© 2014 The Author(s) This is an Open Access ar ticle distributed under the terms of the Creative Commons Attribution Licence (CC-BY) (http://creativecommons.org/licenses/by/3.0/)c which permits unrestricted use, distribution and reproduction in any medium, provided the original work is properly cited.\n(1 picture or pasted object on this page, not shown here)"}, "[6]": {"test_system": "Rsks", "conditions": "cited from earlier work"}, "[7]": {"test_system": "Aurora B", "conditions": "cited from earlier work"}}}
{"smiles": "CC(C)CCN1c2nc(Nc3cc(F)c(O)c(F)c3)ncc2N(C)C(=O)C1C", "note": "(stereo not shown) [D1870, BI-D1870]", "values": [{"measurement": "IC50", "setting": "[1]", "result": 250, "unit": "nM"}, {"measurement": "PKB phosphorylation", "setting": "[2]", "result": "not affected"}, {"measurement": "Recovery of PLK1 on streptavidin beads", "setting": "[3]", "result": "blocked"}, {"measurement": "kinase activity of Mst1 immunoprecipitated from DC", "setting": "[4]", "result": "substantially inhibited"}, {"measurement": "morphological changes in resting DC (cell spreading, focal adhesion, loss of podosomes)", "setting": "[5]", "result": "induced morphological changes"}, {"measurement": "IC50", "setting": "[6]", "result": "10 to 30", "unit": "nM"}, {"measurement": "IC50", "setting": "[7]", "result": 340, "unit": "nM"}]}
